# From patent US9527850B2, “Benzyl piperidine compounds as lysophosphatidic acid (LPA) receptor antagonist” (Merck Patent GmbH, priority 2011, dated 2016)
# Molecular target: T1, LPA2 receptor (LPA2R) (Homo sapiens, UniProt Q9HBW0)
# T1 construct: expressed in transfected cells; host or cells: U2OS
# Test: LPA2R-Calciumflux assay (intracellular calcium mobilisation, FLIPR)
# Type: cell-based
# Conditions: U2OS cells recombinant expressing LPA2R; inhibition of LPA-induced Ca-flux; 10 concentrations 30 uM to 1 nM, 1% DMSO
# Description: The assay detects intra cellular calcium which is generated by cells upon activation of the LPA2 receptor by its ligand LPA. This transient calcium mobilization can be monitored using a commercial calcium detection kit (e.g. from Molecular Devices). The main component of such a kit is a dye, which becomes fluorescent when calcium is present—a transient fluorescence signal after laddition of a ligand to a test well are the result. Readers like the FLIPR (Molecular Devices) can be used to monitor such transient “Ca-flux” signals.
# The signals are calculated according to peak maximum minus base line.
# The assay is performed in microplates (384 wells per plate).
# LPA2R-Calciumflux Assay Protocol
# The assay is run according to the following procedure: • 50 uL seed cells (10000 cells/well in DMEM buffer) • Incubate 24 h at 37° C., 10% CO2 • aspirate medium • 50 uL add calcium dye 1×HBSS/HEPES buffer • incubate 1 h at 37° C. (“loading”) • equilibrate 10 min at RT • 5 uL add compounds in HEPES buffer • shake 10 sec. at 1000 rpm • incubate 15 min at RT • 20 uL add LPA (in the FLIPR Tetra) in Krebs-buffer/BSA & measurement
# The cells are seeded in DMEM buffer (DMEM, 10% FCS, 10 mM HEPES, 1% Pen/Strep).
# Dye loading is done in HBSS/HEPES buffer (100 mL 10×HBSS+20 mL 1M HEPES+880 mL water, pH 7.4)
# The LPA is added in Krebs/BSA buffer (120 mM NaCl, 5 mM KCl, 0.62 mM MgSO4, 1.8 mM CaCl2, 10 mM HEPES, 6 mM D(+)-Glucose, 0.2% BSA, pH 7.4).
# The compounds are pre-diluted in HEPES buffer (20 mM, pH 7.4), whereby the final DMSO content in the assay is kept at 1%. The compounds are pre-diluted in order to generate dose response series on the microplates. The dose response series consist of 10 concentrations for each compound from 30 uM final to 1 nM final. From all compound wells the resulting signals are referred to control wells (located on each plate besides the compound wells) in terms of % activity.
# From these % activity values—along with the corresponding compound concentrations—IC50 values are fitted for each compound using standard fitting programs such as Graphpad Prism. Here the method “log(inhibitor) vs. response—Variable slope” is used.
# T1 sequence (Q9HBW0 whole entry): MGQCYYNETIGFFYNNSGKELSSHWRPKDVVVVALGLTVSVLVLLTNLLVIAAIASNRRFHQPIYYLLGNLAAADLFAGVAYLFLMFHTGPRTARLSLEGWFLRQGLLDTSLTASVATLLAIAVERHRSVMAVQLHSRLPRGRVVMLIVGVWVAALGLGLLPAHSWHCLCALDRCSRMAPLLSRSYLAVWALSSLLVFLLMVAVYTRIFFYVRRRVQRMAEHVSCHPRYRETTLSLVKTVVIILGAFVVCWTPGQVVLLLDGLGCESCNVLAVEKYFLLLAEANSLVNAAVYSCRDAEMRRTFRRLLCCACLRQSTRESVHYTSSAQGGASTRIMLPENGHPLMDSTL
row,IC50,Compound
1,5 to 15 µM,"N#Cc1ccc(CN2CCCCC2c2cc3c(F)ccc(F)c3[nH]2)cc1 (stereo not shown) [compound 42, 4-[2-(4,7-Difluoro-1H-indol-2-yl)-piperidin-1-ylmethyl]-benzonitrile]"
2,0.5 to 5 µM,"Fc1ccc(F)c2[nH]c(C3CCCCN3)cc12 (stereo not shown) [compound 44, 4,7-Difluoro-2-piperidin-2-yl-1H-indole]"
3,0.5 to 5 µM,"CC1CCCC(c2cc3cc(F)ccc3[nH]2)N1 (stereo not shown) [compound 45, 5-Fluoro-2-(6-methyl-piperidin-2-yl)-1H-indole]"
4,0.5 to 5 µM,"Cc1ccc(CN2C(C)CCCC2c2cc3cc(F)ccc3[nH]2)cc1 (stereo not shown) [compound 46, 5-Fluoro-2-[6-methyl-1-(4-methyl-benzyl)-piperidin-2-yl]-1H-indole]"
5,0.5 to 5 µM,COc1ccc(CN2CCCCC2c2nc3cc(F)ccc3[nH]2)cc1 (stereo not shown) [compound 47]
6,0.5 to 5 µM,"COc1ccc(CN2CCCCC2c2cc3ccccc3o2)cc1 (stereo not shown) [compound 48, 2-Benzofuran-2-yl-1-(4-methoxy-benzyl)-piperidine]"
7,< 0.5 µM,"Fc1ccc(CN2CCCCC2c2nc3cc(F)ccc3[nH]2)cc1 (stereo not shown) [compound 49, 5-Fluoro-2-[1-(4-fluoro-benzyl)-piperidin-2-yl]-1H-benzo-imidazole]"
8,0.5 to 5 µM,"Cc1ccc(CN2CCCCC2c2cc3ccccc3o2)cc1C (stereo not shown) [compound 50, 2-Benzofuran-2-yl-1-(3,4-dimethyl-benzyl)-piperidine]"
9,< 0.5 µM,"Cc1ccc(CN2CCCCC2c2nc3cc(F)ccc3[nH]2)cc1C (stereo not shown) [compound 51, 2-[1-(3,4-Dimethyl-benzyl)-piperidin-2-yl]-5-fluoro-1H-benzo-imidazole]"
10,5 to 15 µM,"Cc1ccc(CN2CCCCC2c2nc3ccccc3s2)cc1C (stereo not shown) [compound 52, 2-[1-(3,4-Dimethyl-benzyl)-piperidin-2-yl]-benzo-thiazole]"
11,0.5 to 5 µM,"Fc1ccc2[nH]c(C3CCCCN3Cc3cccc(Cl)c3Cl)cc2c1 (stereo not shown) [compound 54, 2-[1-(2,3-Dichloro-benzyl)-piperidin-2-yl]-5-fluoro-1H-indole]"
12,0.5 to 5 µM,"COc1cc(CN2CCCCC2c2cc3cc(F)ccc3[nH]2)cc(OC)c1 (stereo not shown) [compound 55, 2-[1-(3,5-Dimethoxy-benzyl)-piperidin-2-yl]-5-fluoro-1H-indole]"
13,0.5 to 5 µM,"Fc1ccc2[nH]c(C3CCCCN3Cc3ccccn3)cc2c1 (stereo not shown) [compound 56, 5-Fluoro-2-(1-pyridin-2-ylmethyl-piperidin-2-yl)-1H-indole]"
14,0.5 to 5 µM,"Fc1ccc2[nH]c(C3CCCCN3Cc3cccc(Br)c3)cc2c1 (stereo not shown) [compound 57, 2-[1-(3-Bromo-benzyl)-piperidin-2-yl]-5-fluoro-1H-indole]"
15,0.5 to 5 µM,"Fc1ccc2[nH]c(C3CCCCN3Cc3ccc(Br)cc3)cc2c1 (stereo not shown) [compound 58, 2-[1-(4-Bromo-benzyl)-piperidin-2-yl]-5-fluoro-1H-indole]"
16,5 to 15 µM,"Fc1ccc2[nH]c(C3CCCCN3Cc3ccc(Cl)cc3Cl)cc2c1 (stereo not shown) [compound 59, 2-[1-(2,4-Dichloro-benzyl)-piperidin-2-yl]-5-fluoro-1H-indole]"
17,5 to 15 µM,"Fc1ccc2[nH]c(C3CCCCN3Cc3ccc(Cl)c(Cl)c3)cc2c1 (stereo not shown) [compound 60, 2-[1-(3,4-Dichlorobenzyl)-piperidin-2-yl]-5-fluoro-1H-indole]"
18,0.5 to 5 µM,"CC1CCC(c2cc3cc(F)ccc3[nH]2)N(Cc2ccc(F)cc2)C1 (stereo not shown) [compound 61, 5-Fluoro-2-[1-(4-fluoro-benzyl)-5-methyl-piperidin-2-yl]-1H-indole]"
19,5 to 15 µM,"COc1cccc(CN2CC(C)CCC2c2cc3cc(F)ccc3[nH]2)c1 (stereo not shown) [compound 62, 5-Fluoro-2-[1-(3-methoxy-benzyl)-5-methyl-piperidin-2-yl]-1H-indole]"

row,IC50,Compound
1,0.5 to 5 µM,"Fc1ccc2[nH]c(C3CCCCN3Cc3c[nH]c4ccccc34)cc2c1 (stereo not shown) [compound 63, 5-Fluoro-2-[1-(1H-indol-3-ylmethyl)-piperidin-2-yl]-1H-indole]"
2,0.5 to 5 µM,"COc1ccc(CN2CCC(C)CC2c2cc3cc(F)ccc3[nH]2)cc1 (stereo not shown) [compound 64, 5-Fluoro-2-[1-(4-methoxy-benzyl)-4-methyl-piperidin-2-yl]-1H-indole]"
3,0.5 to 5 µM,"Cc1ccc2c(c1)c(CN1CCCCC1c1cc3cc(F)ccc3[nH]1)cn2C (stereo not shown) [compound 65, 3-[2-(5-Fluoro-1H-indol-2-yl)-piperidin-1-ylmethyl]-1,5-dimethyl-1H-indole]"
4,0.5 to 5 µM,"Cc1ccc2c(CN3CCCCC3c3cc4cc(F)ccc4[nH]3)cn(C)c2c1 (stereo not shown) [compound 66, 3-[2-(5-Fluoro-1H-indol-2-yl)-piperidin-1-ylmethyl]-1,6-dimethyl-1H-indole]"
5,0.5 to 5 µM,"Brc1ccc(CN2CCCCC2c2cc3ccccc3[nH]2)cc1 (stereo not shown) [compound 67, 2-[1-(4-Bromo-benzyl)-piperidin-2-yl]-1H-indole]"
6,0.5 to 5 µM,"COc1ccc(CN2CCC(C)CC2c2cc3ccccc3[nH]2)cc1 (stereo not shown) [compound 68, 2-[1-(4-Methoxy-benzyl)-4-methyl-piperidin-2-yl]-1H-indole]"
7,0.5 to 5 µM,"Cc1cc(C)c2cc(C3CCCCN3Cc3ccc(F)cc3)[nH]c2c1 (stereo not shown) [compound 69, 2-[1-(4-Fluoro-benzyl)-piperidin-2-yl]-4,6-dimethyl-1H-indole]"
8,0.5 to 5 µM,Cc1ccc2[nH]c(C3CCCCN3Cc3ccc(F)cc3)cc2c1 (stereo not shown) [compound 70]
9,0.5 to 5 µM,"COc1cccc(CN2CCCCC2c2cc3cc(C)ccc3[nH]2)c1 (stereo not shown) [compound 71, 2-[1-(3-Methoxy-benzyl)-piperidin-2-yl]-5-methyl-1H-indole]"
10,< 0.5 µM,"CC(c1ccc(F)cc1)N1CCCCC1c1cc2cc(F)ccc2[nH]1 (stereo not shown) [compound 72, 5-Fluoro-2-{1-[1-(4-fluoro-phenyl)-ethyl]-piperidin-2-yl}-1H-indole]"
11,< 0.5 µM,"COc1ccc(CN2CCCCC2c2cc3cc(Cl)ccc3[nH]2)cc1 (stereo not shown) [compound 73, 5-Chloro-2-[1-(4-methoxy-benzyl)-piperidin-2-yl]-1H-indole]"
12,0.5 to 5 µM,"COc1cccc(CN2CCC(C)CC2c2cc3cc(Cl)ccc3[nH]2)c1 (stereo not shown) [compound 74, 5-Chloro-2-[1-(3-methoxy-benzyl)-4-methyl-piperidin-2-yl]-1H-indole]"
13,< 0.5 µM,"Cc1c(C2CCCCN2Cc2ccc(F)cc2)[nH]c2ccc(F)cc12 (stereo not shown) [compound 75, 5-Fluoro-2-[1-(4-fluoro-benzyl)-piperidin-2-yl]-3-methyl-1H-indole]"
14,5 to 15 µM,"COc1ccc(CN2CCCC(C)C2c2cc3c4c(ccc3[nH]2)CCC4)cc1 (stereo not shown) [compound 76, 2-[1-(4-Methoxy-benzyl)-3-methyl-piperidin-2-yl]-3,6,7,8-tetrahydro-cyclopenta [e]indole]"
15,0.5 to 5 µM,"Cc1ccc(CN2CCC(C)CC2c2cc3ccccc3[nH]2)cc1C (stereo not shown) [compound 79, 2-[1-(3,4-Dimethyl-benzyl)-4-methyl-piperidin-2-yl]-1H-indole]"
16,0.5 to 5 µM,"CC1CCCN(Cc2ccc(F)cc2)C1c1cc2ccccc2[nH]1 (stereo not shown) [compound 81, 2-[1-(4-Fluoro-benzyl)-3-methyl-piperidin-2-yl]-1H-indole]"
17,< 0.5 µM,"COc1cccc(CN2CCCCC2c2cc3cc(OC)ccc3[nH]2)c1 (stereo not shown) [compound 82, 5-Methoxy-2-[1-(3-methoxy-benzyl)-piperidin-2-yl]-1H-indole]"
18,0.5 to 5 µM,"COc1ccc2[nH]c(C3CC(C)CCN3Cc3ccc(C)c(C)c3)cc2c1 (stereo not shown) [compound 83, 2-[1-(3,4-Dimethyl-benzyl)-4-methyl-piperidin-2-yl]-5-methoxy-1H-indole]"
